In PMC4838890, “Dynamic and flexible H3K9me3 bridging via HP1β dimerization establishes a plastic state of condensed chromatin” (Nature Communications, 2016):
pEC50: −log10 of the molar value.

Legend:
H3K9me3 oligonucleosomes [1] = assay: Scanning force microscopy; assay type: biochemical, Xenopus laevis; details: 50 mM NaCl
Procedure: Nucleosomal arrays and recombinant hHP1β were dialyzed against SFM buffer (5 mM triethanolamine (pH7.5), 50 mM NaCl, 0.1 mM EDTA). The recombinant proteins at different concentrations (between 0 and 5 μM) were preincubated with oligonucleosomes at a DNA concentration of 50 ng ml^−1 in SFM buffer for 1 h at 4°C, and the samples were fixed with 0.05% (v/v) fresh glutaraldehyde (Electron Microscopy Sciences, PA, USA) at 4°C overnight. Fixed samples were extensively dialyzed against TEAE buffer (5 mM triethanolamine (pH 7.5), 0.1 mM EDTA). 10 μl of dialyzed sample was deposited on ca. 1 cm^2 of freshly cleaved mica (Plano). After 5 min incubation at RT, the mica was washed with 200 μl of water (high-performance liquid chromatography grade) and air-dried. Images were recorded in air on a Nanoscope V Multi Mode scanning force microscope (Veeco, NY, USA) using an ‘E'-scanner with maximum scan size of 15 × 15 μm and silicon-etched probe tips with a typical spring constant of 40 N m^−1 and a typical resonance frequency of 325 kHz (NSC15, MikroMasch) in tapping mode. […]

H3K9me3 oligonucleosomes [2] = assay: Chromatin sedimentation (clustering), H3K9me3 oligonucleosomes; assay type: biochemical, Xenopus laevis; details: for chromatin clustering/aggregation, H3K9me3: saturating protein (5 μM) or titration, EtBr fluorescence, n=3
Procedure: Figure 3 hHP1β clusters oligonuclesomal arrays in dependence of H3K9me3. (a) Oligonucleosomes (2.5 nM) were incubated with increasing concentrations of hHP1β WT or I161A at 150 mM NaCl. DNA remaining in the supernatant after centrifugation was incubated with EtBr and measured by fluorescence reading. Data were normalized to amounts in absence of added protein. Averages of three independent experiments are plotted; error bars represent s.d.; n=3. (b) Analysis of the hydrodynamic radius of oligonucleosomes (10 nM; DNA labelled with ATTO 610) in the presence of increasing concentrations of hHP1β WT or I161A by FCS at 150 mM NaCl. For details on experimental setup see Supplementary Fig. 3. Error bars represent s.d.; n=3. (c) Oligonucleosomes were reconstituted after mixing H3K9me0 and H3K9me3 octamers at different ratio. Chromatin precipitation analysis at 150 mM NaCl was carried out with hHP1β WT at saturating concentration. Data are presented as in a. (d) Precipitation behaviour of oligonucleosomes (2.5 nM) was analysed at different concentrations of NaCl with hHP1β WT at saturating concentration. Data are presented as in a. (e) H3K9me3-containing chromatin was reconstituted using wild-type core histones or tailless H2A, H2B or H4. Oligonucleosomes (2.5 nM) were incubated with increasing concentrations of hHP1β WT at 150 mM NaCl. Data are presented as in a. (f) Chromatin coprecipitation of hHP1β with H3K9me3-containing oligonucleosomes reconstituted with wild-type or tailless core histones at the indicated concentrations of MgCl2. Precipitated material was analysed by western blotting. The region of the western blot membrane of the experiment at 7.5 mM MgCl2 containing histones was stained with Ponceau. (g) Oligonucleosomes at 50 mM NaCl were incubated with hHP1β WT or I161A. Complexes were fixed with 0.05% (v/v) glutaraldehyde, spotted on mica surfaces and analysed by scanning force microscopy. Control, no protein added; scale bar, 100 nm. (h) Quantification of results representatively shown in g according to the classification on the top: A, extended; B, partially condensed; C, fully condensed; D; aggregates; n>50 for each condition.
For saturating conditions, 2.7 nM oligonucleosomes were incubated with 5 μM hHP1β proteins in 100 μl sedimentation buffer (10 mM triethanolamine (pH 7.5), 150 mM NaCl, 0.1 mM EDTA) for 1 h on ice. For non-saturating conditions, 3 μM recombinant proteins were used and the NaCl concentration in the sedimentation buffer was lowered to 100 mM. After incubation, 40 μl per sample was placed into a well of a 96-well plate and kept as ‘input'. The rest was centrifuged at 16,100g for 30 min at 4°C. 40 μl supernatant was carefully removed and placed into a 96-well plate (‘output'). For quantification of chromatin DNA, the input and output samples were incubated with 40 μl 0.5 μg ml^−1 ethidium bromide and fluorescence was measured on a Plate CHAMELEON II fluorescence plate reader (Hidex, Turku, Finland) using a 360 nm (±5 nm) excitation filter and a 612 nm (±5 nm) emission filter. For each sample the ratio of DNA concentrations after and before centrifugation (output/input) was calculated.
Supplementary Table 1: Summary of conditions used in the different experiments of this study. experiment result modification template Temp. [NaCl] [MgCl2] […]
chromatin Fig. 1e,f; Fig. S1f-h; H3K9me3 oligo- 4 150 5 coprecipitation Fig. S2b nucleosomes
Fig. S7d,f; Fig.S9c nucleosomes […]
chromatin sedimentation Fig. 4a; H3K9me3 oligo- 4 150 0
(single point) Fig. S3b nucleosomes […]
chromatin sedimentation. oligo-(titration) Fig. 3a H3K9me3 nucleosomes 4 150 0 […]
crosslinking Fig. S6e,f nucleosomes […]
crosslinking Fig. S7a,b nucleosomes
EMSA Fig. 1g; Fig. 5c; n//a RT 100 5
1Preincubation of oligonucleosomes and h HP1β was performed at 4 °C . Measurements wer e carried out at the in dicated te mperature.
2in increments o f 0 .5 mM
3MgCl2 was added at the end of incubation to coprecipitate oligonucleosomes a nd bound hHP1β.

| Substance | frequency of condensed chromatin fibres and large clusters (H3K9me3 oligonucleosomes [1]; H3K9me3 chromatin, n>50) | chromatin clustering/aggregation, H3K9me3 (H3K9me3 oligonucleosomes [2]; 150 mM NaCl) | chromatin clustering/aggregation, H3K9me3 (H3K9me3 oligonucleosomes [2]; 150 mM NaCl, listed as I161A) | structures observed by SFM (H3K9me3 oligonucleosomes [1]; 0.5 μM protein) | structures observed by SFM (H3K9me3 oligonucleosomes [1]; 5 μM protein) | frequency of condensed chromatin fibres and large clusters, H3K9me0 (H3K9me3 oligonucleosomes [1]; H3K9me0 chromatin, n>50) | concentration sufficient for maximal chromatin clustering (H3K9me3 oligonucleosomes [2]; 150 mM NaCl) | pEC50 (H3K9me3 oligonucleosomes [2]; 150 mM NaCl, 4°C, read-out: half-maximal effect, chromatin precipitation assay) | salt concentration above which hHP1β induces clustering (H3K9me3 oligonucleosomes [2]; salt titration, saturating hHP1β WT, 2.5 nM oligonucleosomes) | reversibility of aggregation (H3K9me3 oligonucleosomes [2]; stepwise precipitation and resolubilization) |
| --- | --- | --- | --- | --- | --- | --- | --- | --- | --- | --- |
| hHP1β I161A: CSD point mutant of hHP1β incapable of dimerization | much lower | failed to induce the aggregation of oligonucleosomes | neither the I161A mutant, nor the isolated CD or CSD had any effect on modified or unmodified chromatin |  |  |  |  |  |  |  |
| hHP1β WT: recombinant human heterochromatin protein 1β (GenBank NM_001127228), 185 aa |  | efficiently aggregated H3K9me3 |  | individual but highly condensed H3K9me3 chromatin species | larger clusters that must contain multiple oligonucleosomes were visible | much lower for H3K9me0 chromatin with hHP1β WT | 5 µM | 6.40 | above 50 mM NaCl | generally reversible |
